Experimental data: patent US9045484B2, “Inhibitors of the BMP signaling pathway” (The Brigham and Women's Hospital, Inc., priority 2008, dated 2015)

Columns and labels:
[1] = Microsomal stability in pooled mouse liver microsomes; type: in vitro ADME; conditions: 0.5 mg/mL microsome protein, 1 mM NADPH
Protocol: Test compound (3 μM final concentration) along with 0.5 mg/mL microsome protein and 1 mM NADPH was incubated for 0, 5, 15, 30 and 60 min. Incubation of test compound and microsomes in the absence of NADPH served as a negative control. The samples were quenched with methanol and centrifuged for 20 min at 2500 rpm to precipitate proteins. Sample supernatants were analyzed (N=3) by LC/MS. The ln peak area ratio (compound peak area/internal standard peak area) was plotted against time and the slope of the line determined to give the elimination rate constant [k=(−1)(slope)]. The half life (t1/2 in minutes) and the in vitro intrinsic clearance (CLint in μL/min/mg protein) values were calculated according to the following equations, where V=incubation volume in μL/mg protein: […]

[2] = test system: turpentine-challenged C57BL/6 mice; conditions: 3 mg/kg ip every 12 h, weekly turpentine for 3 weeks
Protocol: To model the anemia of inflammation, C57BL/6 mice were studied in which chronic inflammation was induced by weekly subcutaneous injections of turpentine.
Mice received a subcutaneous injection of 100 μL turpentine weekly for 3 weeks. Compound 13 or vehicle (3 mg/kg) was administered ip beginning with the first turpentine injection and every 12 h thereafter. Vehicle treated mice without turpentine injection were studied as controls. One week after the final turpentine dose, blood was drawn for Hb levels, mean corpuscular volume (MCV), and absolute neutrophil counts.

LDL-R-deficient mice = assay: Vascular calcification in high-fat diet fed LDL-R-deficient mice, Osteosense probe imaging of aortas; type: in vivo; conditions: 16 weeks high fat diet; compound 13 mg/kg IP twice daily; FIG. 24
Protocol: Adult (10 week old) LDL-R-deficient mice on a C57BL/6 background were subjected to a high-lipid atherogenic diet, concurrently with vehicle treatment or drug treatment (compound 13 mg/kg IP twice daily) started simultaneously with atherogenic diet. After 16 weeks of high fat diet and drug treatment, aortas, carotids, and left ventricular outflow tract were harvested and prepared as appropriate for histochemical staining or immunohistological staining, by en face mounting and fixation, or for paraffin embedded tissue sections for histology. To analyze early osteogenesis (as a precursor to calcification), mice were injected intravenously with Osteosense probe (VisEn) 24 hours prior to harvest, and harvested aortas were rinsed with phosphate buffered saline. Visualization of Osteosense probe was accomplished by near-IR fluorescence ([…]) using a LICOR laser scanner. This technique readily detected signal in aortas obtained from high-fat diet LDL-R-deficient mice treated with vehicle control (e, f, and g), while relatively little background signal was obtained in wild-type mice given a normal diet (a, b). Non-fluorescent imaging of wild-type aortas is also depicted (c, d).

[3] = test system: turpentine-challenged C57BL/6 mice; assay: Turpentine-induced hypoferrinemia, 24 h after one turpentine injection; type: in vivo
Protocol: Mice received a subcutaneous injection of turpentine, and 24 h later, serum was obtained for measurement of iron concentrations. Compound 13 (3 mg/kg) or vehicle was administered ip concurrently with turpentine and 12 hours later.

hematopoietic stem cells = assay: Frequency of hematopoietic stem cells in bone marrow, multicolor flow cytometry; type: in vivo, C57BL/6 mice; conditions: 3 mg/kg/d IP for 30 days; versus vehicle-injected controls; FIG. 15
Protocol: Ten week-old male C57BL/6 mice were treated chronically with compound 13 (3 mg/kg/d IP) for 30 days, and bone marrow harvested and subjected to multicolor flow cytometry to quantify hematopoietic stem cell lineages based on cell surface marker expression.

hepcidin [4] = assay: Pseudomonas aeruginosa-induced hepcidin expression in zebrafish embryos; type: in vivo; conditions: 6 μM; 5 h after PsA injection; RT-qPCR; FIG. 6
Text: The following describes the development an in vivo model of inflammation-induced hepcidin expression that is amenable to facile genetic and pharmacological manipulation. The zebrafish is an attractive organism because it enables rapid knockdown of gene function via morpholino oligonucleotides and because it is highly amenable to pharmacological manipulation. Live Pseudomonas aeruginosa (PsA) were microinjected into the yolk of three-day-old zebrafish to induce a rapid and robust inflammatory response. It was determined that injection of bacteria induces robust expression of inflammatory markers. Embryos were injected with 5000 live PsA bacteria or phosphate PBS at 48 hpf and harvested 5 h later. TNFα, serum amyloid A (SAA), IL-1β, and IL-11α mRNA levels were measured by RT-qPCR (FIG. 5; *P<0.001 vs PBS, #P<0.002 vs. PBS). […] Next, it was examined whether the inflammatory response evoked by PsA in zebrafish is accompanied by induction of hepcidin.

hepcidin [5] = assay: Hepatic hepcidin expression in the steady state after 30 days treatment; type: in vivo, C57BL/6 mice; conditions: 3 mg/kg/d IP for 30 days; FIG. 16
Protocol: Ten-week-old male C57BL/6 mice fed a normal iron replete diet were treated chronically with compound 13 (3 mg/kg/d IP) or vehicle for 30 days, and hepatic hepcidin mRNA levels were measured by quantitative RT-PCR.

Structure (SMILES): c1ccc2c(-c3cnn4cc(-c5ccc(N6CCNCC6)cc5)cnc34)ccnc2c1 [Compound 13, 4-[6-(4-piperazin-1-ylphenyl)pyrazolo[1,5-a]pyrimidin-3-yl]quinoline]
- half-life at 3 μM ([1]; read-out: half-life (t1/2) in mouse liver microsomes): 1.37 h
- microsomal CLint at 3 μM ([1]; read-out: intrinsic clearance (CLint) in mouse liver microsomes): 16.9 ± 5.6 µL/min/mg
- hemoglobin (Hb) levels ([2]; FIG. 10): prevented the decline in Hb levels and MCV
- mean corpuscular volume (MCV) ([2]; FIG. 11): prevented the decline in Hb levels and MCV
- absolute neutrophil counts ([2]; FIG. 12): did not affect the increase in absolute neutrophil counts
- Osteosense near-IR fluorescence of aortas (LDL-R-deficient mice): less intense than that of vehicle-treated controls
- turpentine-induced reduction in serum iron levels ([3]; 3 mg/kg ip with turpentine and 12 hours later, FIG. 8): prevented turpentine-induced reduction in serum iron levels
- hepatic hepcidin mRNA levels after turpentine ([3]; two doses 3 mg/kg IP every 12 hours, FIG. 9): prevented elevation of hepatic hepcidin mRNA levels
- frequency of hematopoietic stem cells in the marrow (hematopoietic stem cells): No significant difference
- PsA-induced induction of hepcidin mRNA (hepcidin [4]): almost completely blocked
- basal hepatic hepcidin mRNA levels relative to vehicle-treated mice (hepcidin [5]): 40%
